# Measured values as given in BindingDB's records for doi:10.1021/jm010216r (Academia Sinica, 2001).
# Test: Inhibitory activity against PRPP synthetase
compound,measurement,value
Nc1ncnc2ncn(CCOCP(=O)(O)O)c12 [[2-(6-Amino-purin-7-yl)-ethoxymethyl]-phosphonic acid],Ki,17 mM
